Drawing on US20240335462A1, “SULFUR/PHOSPHORUS-CONTAINING ARYL COMPOUND AND APPLICATION THEREOF” (MEDSHINE DISCOVERY INC., priority 2021, published 2024), this text covers IC50 for six molecules.

What all share (type): cell-based
For experiment [1], the system named is JAK1/3 signaling pathway (IL-2/pSTAT5). Kind of experiment: IL-2-stimulated pSTAT5 in human PBMC (flow cytometry). The note with it: CD4-positive cells. As to the method: The purpose of this experiment was to detect the inhibitory effect of the compounds on cytokine-activated JAK-STAT signaling pathways in human peripheral blood mononuclear cells (PBMC).
• a) PBMCs frozen in liquid nitrogen were thawed in a 37° C. water bath, and culture medium was added. The mixture was then centrifuged at 320 g for 3 minutes. • b) Cells were resuspended in culture medium, counted, and the cell concentration was adjusted to 5×10^5 cells/mL with culture medium. Subsequently, the cell suspension was inoculated into […] 96-well round-bottom plates, with 200 μL per well. The plates were incubated at 37° C. with 5% CO2 for 90 minutes. • c) Different concentrations of the test compound (starting at 2 μM, 5-fold serial dilution, a total of 8 concentrations) were added, followed by incubation at 37° C. with 5% CO2 for 30 minutes. • d) IL-6 (final concentration at 20 ng/mL) was added to the first round-bottom plate and incubated at 37° C. with 5% CO2 for 15 minutes. • e) IFNα (final concentration at 1000 U/mL) was added to the second round-bottom plate and incubated at 37° C. with 5% CO2 for 15 minutes. • f) IL-2 (final concentration at 4 ng/mL) was added to the third round-bottom plate and incubated at 37° C. with 5% CO2 for 15 minutes. • g) GM-CSF (final concentration at […]) was added to the fourth round-bottom plate and incubated at 37° C. with 5% CO2 for 15 minutes. • h) Cells were centrifuged at 320 g for 3 minutes, and each well was washed once with 200 μL of staining solution. • i) 50 μL of staining solution containing human CD33 antibody was added to each well of the GM-CSF-stimulated culture plate, and 50 μL of staining solution containing CD4 antibody was added to the remaining three culture plates. The staining was performed at 4° C. for 30 minutes. The cells were washed twice with the staining solution. • j) 100 μL of fixation buffer was added to each well, and the cells were fixed at 4° C. for 15 minutes. The cells were washed once with the staining solution. • k) 100 μL of permeabilization buffer was added to each well, and the cells were permeabilized at 4° C. for 20 minutes. The cells were washed twice with the staining solution. • l) 50 μL of staining solution containing human pSTAT1 antibody was added to each well of the IL-6 and IFN-α-stimulated culture plates, and 50 μL of staining solution containing human pSTAT5 antibody was added to each well of the IL-2 and GM-CSF-stimulated culture plates. The staining was performed at room temperature for 15 minutes. The cells were washed twice with the staining solution. • m) The cells were resuspended in 150 μL of staining solution. • n) The fluorescence intensity of pSTAT1 (stimulated by IL-6 and IFN-α) or pSTAT5 (stimulated by IL-2) in CD4-positive cells was detected using flow cytometer. The fluorescence intensity of pSTAT5 (stimulated by GM-CSF) in CD33-positive cells was also detected.
Data analysis was performed using Flowjo software to determine the IC50 of the compounds.
(In general: Flow cytometry measures light scatter and fluorescence of single cells or particles in a stream.)

Experiment [2] shares this test system. The experiment can be described thus: IL-2-induced STAT phosphorylation in human whole blood. As to the method:
(§1) The purpose of this experiment was to detect the inhibitory effect of the compound on the JAK-STAT signaling pathway activated by cytokines in human whole blood or platelet-rich plasma. Fresh human whole blood/platelets were placed in a 96-well plate. The test compound was added and incubated for 1 hour, followed by stimulation with various cytokines. The corresponding STAT phosphorylation levels in different cell populations were analyzed using flow cytometer by means of surface antibody staining and intracellular phosphorylated antibody staining. The experiments using the cytokines IFN-α, […] as stimulants were conducted in human whole blood, whereas the experiment using the cytokine TPO as a stimulant was conducted in platelet-rich plasma.
(§2) • a) Fresh blood from volunteers was collected using EDTA anticoagulant tubes. • b) 90 μL per well of whole blood was rapidly seeded into a 96-well plate and incubated in a cell culture incubator for 15 minutes. […] The plate was centrifuged at 500×g for 8 minutes, and the supernatant was discarded. • g) The cell pellet was washed once with pre-cooled PBS. • h) After discarding the supernatant, anti-human CD3 antibody was added thereto, followed by incubation at room temperature for 40 minutes. • i) The plate was centrifuged at 500×g for 8 minutes, then the supernatant was discarded, and the cells were washed twice with 200 μL of pre-cooled PBS. • j) The cells were resuspended in 200 μL of pre-cooled Perm Buffer III per well and permeabilized on ice for 60 minutes. • k) The plate was centrifuged at 600×g for 8 minutes, then the supernatant was discarded, and the cells were washed twice with pre-cooled PBS. • l) Intracellular staining with anti-pSTAT5 antibody was carried out, followed by incubation at room temperature for 60 minutes. • m) The cells were centrifuged at 600×g for 8 minutes, washed twice with PBS, resuspended in 200 μL of PBS, and detected using the CytoFlex S flow cytometer. • n) Data analysis was conducted using FlowJo and GraphPad Prism 8 software.
(§3) Data were analyzed using FlowJo software. […]

For experiment [3], the system named is TYK2 signaling pathway (IFN-α/pSTAT5). The experiment can be described thus: IFN-α-induced STAT phosphorylation in human whole blood. As to the method:
as §1, §2, §3

The IC50 is the concentration at which inhibition is half-maximal. High values mean weaker potency, low ones greater potency.

Regarding `CNC(=O)c1nnc(NC(=O)C2CC2)cc1Nc1cccc(-c2ncc(S(=N)(=O)C(C)C)cn2)c1OC` (single isomer, unassigned) [WX-011A], the IC50 in experiment [1] came out at 1310 nM; in experiment [2] it was 11200 nM; in experiment [3], 23.1 nM.

For the molecule `CNC(=O)c1cnc(NC(=O)C2CC2)cc1Nc1cccc(-c2ncc(S(=O)(=O)C(C)C)cn2)c1OC` [WX-019], the IC50 in experiment [1] worked out at 1580 nM; in experiment [2], 33800 nM; in experiment [3], 29.7 nM. As to `CNC(=O)c1cnc(NC(=O)C2CC2)cc1Nc1cccc(-c2ccc(S(=O)(=O)C(C)C)cn2)c1OC` [WX-020], the IC50 in experiment [2] was > 100000 nM; in experiment [3], 40.3 nM. As for `CNC(=O)c1nnc(NC(=O)C2CC2)cc1Nc1cccc(-c2ccc(P(=O)(C3CC3)C3CC3)cn2)c1OC` [WX-021], in experiment [1], the IC50 was determined as 540 nM. The same measure, in the same setting: next, `CNC(=O)c1nnc(NC(=O)C2CC2)cc1Nc1cccc(-c2ncc(S(=N)(=O)C(C)C)cn2)c1OC` (single isomer, unassigned) [WX-011B]: 773 nM. In turn, `CNC(=O)c1cnc(NC(=O)C2CC2)cc1Nc1cccc(-c2ccc(S(=O)(=O)C(C)C)cn2)c1OC.Cl` [Hydrochloride of WX-020] returned a concentration for half-maximal inhibition (IC50) in experiment [1] of 1400 nM. This IC50 is about 1.8-fold higher than that of the molecule before.
